ChEMBL document CHEMBL1201862, “PubChem BioAssay data set” (2004)
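1) Cells in 96-well plates. 2) Compound, 48 h, 5 concentrations. 3) Linear interpolation between surrounding doses. 4) Unreached endpoint = highest concentration. Here, GI50 denotes the concentration required for 50% inhibition of growth.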 Calls of active or inactive are those of the source. Cut-off read from the data, not from the text of the source: active = GI50 up to about 1.1 µM and inactive = higher.

Key:
Assay in all cases: NCI-60 cell line screen, 48 h
NCI-H23 = tested on: NCI-H23
SK-MEL-2 = tested on: SK-MEL-2
A549 = tested on: A549
DU-145 = tested on: DU-145
NCI-H226 = tested on: NCI-H226
HT-29 = tested on: HT-29
SNB-75 = tested on: SNB-75
MDA-N = tested on: MDA-N
U-251 = tested on: U-251
786-0 = tested on: 786-0
ACHN = tested on: ACHN
CCRF-CEM = tested on: CCRF-CEM
SNB-19 = tested on: SNB-19
SK-OV-3 = tested on: SK-OV-3
SK-MEL-5 = tested on: SK-MEL-5
LOX IMVI = tested on: LOX IMVI
TK-10 = tested on: TK-10
MDA-MB-231 = tested on: MDA-MB-231

Row | SMILES | GI50 (NCI-H23) | GI50 (SK-MEL-2) | GI50 (A549) | GI50 (DU-145) | GI50 (NCI-H226) | GI50 (HT-29) | GI50 (SNB-75) | GI50 (MDA-N) | GI50 (U-251) | GI50 (786-0) | GI50 (ACHN) | GI50 (CCRF-CEM) | GI50 (SNB-19) | GI50 (SK-OV-3) | GI50 (SK-MEL-5) | GI50 (LOX IMVI) | GI50 (TK-10) | GI50 (MDA-MB-231)
1 | COc1cc(C2c3cccc4cccc(c34)C3CCC(=O)N32)cc(OC)c1O (centres undefined) | > 50 µM (inactive) | > 50 µM (inactive) | 42.7 µM (inactive) | > 50 µM (inactive) | > 50 µM (inactive) | > 50 µM (inactive) | > 50 µM (inactive) | > 50 µM (inactive) | > 50 µM (inactive) | > 50 µM (inactive) | > 50 µM (inactive) | > 50 µM (inactive) | > 50 µM (inactive) | > 50 µM (inactive) |  |  |  | 
2 | COc1cc(S(=O)(=O)Nc2ccc(-c3csc(N4C(=O)C(Cl)C4c4cccs4)n3)cc2)ccc1Cl (centres undefined) | 29.4 µM (inactive) | > 100 µM (inactive) | > 100 µM (inactive) | > 100 µM (inactive) | 46 µM (inactive) | > 100 µM (inactive) | > 100 µM (inactive) | 65 µM (inactive) |  | 25.8 µM (inactive) | > 100 µM (inactive) | 4.1 µM (inactive) | > 100 µM (inactive) | > 100 µM (inactive) | 93.8 µM (inactive) | 2.43 µM (inactive) |  | 
3 | Nc1ccc(/N=N/c2ccccc2)cc1 | 61.5 µM (inactive) | 22.6 µM (inactive) | 32.6 µM (inactive) |  | 25.4 µM (inactive) | 28.6 µM (inactive) | 10.3 µM (inactive) | 60.3 µM (inactive) | 46.5 µM (inactive) | 64.9 µM (inactive) | 30.3 µM (inactive) | 6.41 µM (inactive) | 84.1 µM (inactive) | > 100 µM (inactive) | 53.5 µM (inactive) | 26.7 µM (inactive) | 47.9 µM (inactive) | 32.7 µM (inactive)
4 | CCCCCCCCCCC[N+]1(Cc2ccccc2)CC2CCN(Cc3ccccc3)CC2C1 (centres undefined) | 0.181 µM (active) | 0.261 µM (active) | 1.2 µM (inactive) | 0.47 µM (active) | 0.67 µM (active) | 0.377 µM (active) | 1.15 µM (inactive) | 0.233 µM (active) | 0.261 µM (active) | 1.03 µM (active) | 1.17 µM (inactive) | 0.261 µM (active) | 0.371 µM (active) | 1.75 µM (inactive) | 0.173 µM (active) | 0.382 µM (active) | 1.29 µM (inactive) | 
5 | CCNC(=O)c1cc(/C=C/c2ccc([N+](=O)[O-])o2)nc2ccccc12 | 16.9 µM (inactive) | 3.52 µM (inactive) | 24.2 µM (inactive) | 2.74 µM (inactive) | 5.15 µM (inactive) | 6.82 µM (inactive) | 22 µM (inactive) |  | 71.9 µM (inactive) | 11.3 µM (inactive) | 2.26 µM (inactive) | 3.18 µM (inactive) | 54.7 µM (inactive) | 33.6 µM (inactive) | 1.5 µM (inactive) | 2.85 µM (inactive) |  | 14.9 µM (inactive)
6 | S=C(Nc1cccc(Cl)c1)Nc1ccccn1 |  | > 100 µM (inactive) | > 100 µM (inactive) | > 100 µM (inactive) | > 100 µM (inactive) | > 100 µM (inactive) | 1.14 µM (inactive) |  | > 100 µM (inactive) | > 100 µM (inactive) |  | > 100 µM (inactive) | > 100 µM (inactive) | > 100 µM (inactive) | > 100 µM (inactive) | > 100 µM (inactive) | > 100 µM (inactive) | 
7 | CC(C)(C)OC(=O)N(CCCCNC(=O)OCc1ccccc1)CCCNC(=O)OCc1ccccc1 | 21.6 µM (inactive) | 55.7 µM (inactive) | 9.71 µM (inactive) | > 100 µM (inactive) | > 100 µM (inactive) | 18.5 µM (inactive) | 51.9 µM (inactive) |  | 35.6 µM (inactive) | 91 µM (inactive) | 9.86 µM (inactive) | 16.3 µM (inactive) | > 100 µM (inactive) | > 100 µM (inactive) | 5.93 µM (inactive) |  | > 100 µM (inactive) | 90.2 µM (inactive)
